# Results from the Kinase Knowledgebase extract (Sharma et al. 2016).
# Biological target: PIK3CG (human) (UniProt P48736)
# Test: Inhibition of PIK3CG Kinase Assay
# PIK3CG (human), sequence (P48736 whole entry, looked up): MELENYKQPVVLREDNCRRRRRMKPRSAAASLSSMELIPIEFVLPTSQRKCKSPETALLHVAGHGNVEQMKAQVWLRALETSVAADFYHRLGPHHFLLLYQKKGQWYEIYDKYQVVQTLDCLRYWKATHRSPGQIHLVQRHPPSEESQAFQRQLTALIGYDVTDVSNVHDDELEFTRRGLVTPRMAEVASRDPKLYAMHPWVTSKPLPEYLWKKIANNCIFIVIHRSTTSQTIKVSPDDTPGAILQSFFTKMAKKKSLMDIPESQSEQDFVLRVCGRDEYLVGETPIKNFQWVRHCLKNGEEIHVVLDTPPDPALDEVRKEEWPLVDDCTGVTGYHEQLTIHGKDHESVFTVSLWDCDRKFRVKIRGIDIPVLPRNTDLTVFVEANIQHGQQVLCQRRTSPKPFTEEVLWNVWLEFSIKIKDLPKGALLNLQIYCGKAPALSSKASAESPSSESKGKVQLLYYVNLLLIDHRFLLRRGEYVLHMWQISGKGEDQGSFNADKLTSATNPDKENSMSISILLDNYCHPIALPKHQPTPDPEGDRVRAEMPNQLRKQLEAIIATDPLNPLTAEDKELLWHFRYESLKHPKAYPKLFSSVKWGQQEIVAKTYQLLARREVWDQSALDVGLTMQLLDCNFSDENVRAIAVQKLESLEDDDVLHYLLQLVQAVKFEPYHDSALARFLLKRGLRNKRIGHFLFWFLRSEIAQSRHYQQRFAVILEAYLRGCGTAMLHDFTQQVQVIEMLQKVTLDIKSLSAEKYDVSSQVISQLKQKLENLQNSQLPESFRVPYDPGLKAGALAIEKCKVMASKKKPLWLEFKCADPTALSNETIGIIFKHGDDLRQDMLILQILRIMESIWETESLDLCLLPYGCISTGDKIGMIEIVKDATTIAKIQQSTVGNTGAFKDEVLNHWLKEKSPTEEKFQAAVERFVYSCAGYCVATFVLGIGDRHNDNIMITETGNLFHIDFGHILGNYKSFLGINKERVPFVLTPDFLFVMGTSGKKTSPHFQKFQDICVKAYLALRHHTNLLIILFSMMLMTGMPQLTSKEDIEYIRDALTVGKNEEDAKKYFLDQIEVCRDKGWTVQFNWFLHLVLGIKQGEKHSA
row,Compound,IC50 [nM]
1,COc1cccc2c1N=C(/C=C(\O)c1cccnc1)N1CCN=C21,≤ 100
2,Cc1ccc2c(c1)N=C(NC(=O)c1cccnc1)N1CCN=C21,≤ 100
3,Cc1cccc2c1N=C(NC(=O)c1ccc3[nH]cnc3c1)N1CCN=C21,≤ 100
4,O=C(NC1=Nc2ccccc2C2=NCCN12)c1ccncc1,500 to 2000
5,O/C(=C\C1=Nc2ccccc2C2=NCCN12)c1csc2ccccc12,> 2000
6,Cc1nc2ccccn2c1C(=O)NC1=Nc2ccccc2C2=NCCN12,100 to 500
7,Cc1ccc(/C(O)=C/C2=Nc3ccccc3C3=NCCN23)cn1,100 to 500
8,O=C(NC1=Nc2ccccc2C2=NCCN12)c1ccc(-n2ccnc2)cc1,> 2000
9,COc1cccc2c1N=C(NC(=O)c1cc3cccnc3nc1C(F)(F)F)N1CCN=C21,≤ 100
10,COc1cc2c(c(OC)c1C)N=C(NC(=O)c1ccc3[nH]cnc3c1)N1CCN=C21,100 to 500
11,O/C(=C\C1=Nc2c(OCCN3CCOCC3)cccc2C2=NCCN12)c1cccnc1,100 to 500
12,O=C(NC1=Nc2cc(OCC(=O)N3CCOCC3)ccc2C2=NCCN12)c1cccnc1,100 to 500
13,Cc1cc(C(=O)NC2=Nc3ccccc3C3=NCCN23)cc(C)c1[N+](=O)[O-],> 2000
14,CCOC(=O)c1cc(C(=O)NC2=Nc3ccccc3C3=NCCN23)cc(C(=O)OCC)c1,> 2000
15,O/C(=C\C1=Nc2ccccc2C2=NCCN12)c1cnccn1,100 to 500
16,Cc1ccc(C(=O)NC2=Nc3ccccc3C3=NCCN23)c(Cl)n1,500 to 2000
17,COc1cc(C(=O)NC2=Nc3ccccc3C3=NCCN23)cc(OC)c1C,> 2000
18,COc1cc2c(c(OC)c1C)N=C(/C=C(\O)c1ccc3[nH]cnc3c1)N1CCN=C21,100 to 500
19,Cc1cc(Br)c2c(c1)C1=NCCN1C(/C=C(\O)c1ccc3[nH]cnc3c1)=N2,100 to 500
20,COc1cc2c(cc1OC)C1=NCCN1C(NC(=O)c1ccc(NC(C)=O)nc1)=N2,100 to 500
21,COc1cc2c(cc1OC)C1=NCCN1C(/C=C(\O)c1sc(C)nc1C)=N2,≤ 100
22,COc1c(C)ccc2c1N=C(/C=C(\O)c1ccc3[nH]cnc3c1)N1CCN=C21,≤ 100
23,O=C(NC1=Nc2c(F)cccc2C2=NCCN12)c1ccc2[nH]cnc2c1,≤ 100

row,Compound,IC50 [nM]
1,Cc1nc(N)ccc1C(=O)NC1=Nc2ccccc2C2=NCCN12,100 to 500
2,COc1cccc2c1N=C(NC(=O)c1ccc3[nH]cnc3c1)N1CCN=C21,≤ 100
3,O/C(=C\C1=Nc2ccccc2C2=NCCN12)c1ccncc1,100 to 500
4,Cc1cnc(C(=O)NC2=Nc3ccccc3C3=NCCN23)cn1,500 to 2000
5,O=C(NC1=Nc2ccccc2C2=NCCN12)c1ccc(Cl)nc1,500 to 2000
6,NS(=O)(=O)c1ccc(C(=O)NC2=Nc3ccccc3C3=NCCN23)c(Cl)c1,> 2000
7,C=Cc1ccc2c(c1)C1=NCCN1C(NC(=O)c1cccnc1)=N2,100 to 500
8,COc1ccc2c(c1OCCN1CCOCC1)N=C(/C=C(\O)c1cccnc1)N1CCN=C21,≤ 100
9,O/C(=C\C1=Nc2cc(Cl)ccc2C2=NCCN12)c1cccnc1,100 to 500
10,COc1cc2c(cc1OC)C1=NCCN1C(NC(=O)c1ccc3[nH]cnc3c1)=N2,≤ 100
11,CC(=O)Nc1ccc(C(=O)NC2=Nc3ccccc3C3=NCCN23)cn1,≤ 100
12,Cn1cccc1C(=O)NC1=Nc2ccccc2C2=NCCN12,500 to 2000
13,CNc1ccc(C(=O)NC2=Nc3ccccc3C3=NCCN23)cn1,100 to 500
14,COc1cc(OC)c2c(c1)C1=NCCN1C(NC(=O)c1ccc3[nH]cnc3c1)=N2,≤ 100
15,COc1c(C)cc(C(=O)NC2=Nc3ccccc3C3=NCCN23)cc1C,> 2000
16,COc1ccc2c(c1Br)N=C(NC(=O)c1cccnc1)N1CCN=C21,≤ 100
17,O=C(NC1=Nc2ccccc2C2=NCCN12)c1sccc1Cl,100 to 500
18,O=C(NC1=Nc2cc(Cl)ccc2C2=NCCN12)c1ccc2[nH]cnc2c1,≤ 100
19,CC(=O)Nc1ccc(/C(O)=C/C2=Nc3cc(N4CCOCC4)ccc3C3=NCCN23)cn1,≤ 100
20,O=C(NC1=Nc2ccccc2C2=NCCN12)c1ccc(-n2cccc2)cc1,> 2000
21,COc1c(OCC(=O)N(C)C)ccc2c1N=C(/C=C(\O)c1cccnc1)N1CCN=C21,≤ 100
22,COc1cc2c(c(OC)c1C)N=C(NC(=O)c1cccnc1C)N1CCN=C21,≤ 100
23,O=C(NC1=Nc2ccccc2C2=NCCN12)c1csc([N+](=O)[O-])c1,> 2000

row,Compound,IC50 [nM]
1,CC(=O)NC1CCN(c2ccc3c(c2)N=C(/C=C(\O)c2cccnc2)N2CCN=C32)C1 (stereo unspecified),≤ 100
2,O=C(NC1=Nc2ccccc2C2=NCCN12)c1ccc([N+](=O)[O-])s1,> 2000
3,CC(=O)Nc1ccc(/C(O)=C/C2=Nc3cc(N4CCN(C)CC4)ccc3C3=NCCN23)cn1,100 to 500
4,Cc1cc(C(=O)NC2=Nc3ccccc3C3=NCCN23)cnc1N,100 to 500
5,COc1cc2c(cc1OC)C1=NCCN1C(NC(=O)c1cncc(O)c1)=N2,≤ 100
6,COc1cncc(C(=O)NC2=Nc3ccccc3C3=NCCN23)c1,100 to 500
7,O/C(=C\C1=Nc2cc(N3CCOCC3)ccc2C2=NCCN12)c1cccnc1,100 to 500
8,CN(C)C=Nc1cncc(C(=O)NC2=Nc3ccccc3C3=NCCN23)c1,100 to 500
9,COc1c(C)ccc2c1N=C(/C=C(\O)c1ccc(NC(C)=O)nc1)N1CCN=C21,≤ 100
10,O=C(NC1=Nc2cc(N3CCOCC3)ccc2C2=NCCN12)c1cncc(O)c1,≤ 100
11,O/C(=C\C1=Nc2cc(N3CCOCC3)ccc2C2=NCCN12)c1cncc(O)c1,≤ 100
12,O=C(NC1=Nc2c(cccc2C(F)(F)F)C2=NCCN12)c1ccc2[nH]cnc2c1,≤ 100
13,COc1ccc2c(c1)N=C(NC(=O)c1cccnc1)N1CCN=C21,100 to 500
14,Cc1ccc2c(c1OCCN1CCOCC1)N=C(/C=C(\O)c1cccnc1)N1CCN=C21,100 to 500
15,COc1cccc2c1N=C(NC(=O)c1cc3cccnc3nc1C)N1CCN=C21,≤ 100
16,Cc1nc2ncccc2cc1C(=O)NC1=Nc2ccccc2C2=NCCN12,100 to 500
17,CC(=O)Nc1ccc(/C(O)=C/C2=Nc3c(CN4CCOCC4)cccc3C3=NCCN23)cn1,100 to 500
18,Cc1ccc(C(=O)NC2=Nc3ccccc3C3=NCCN23)cn1,≤ 100
19,O=C(NC1=Nc2ccccc2C2=NCCN12)c1ccc(-n2cccn2)cc1,> 2000
20,CC(=O)Nc1ccc(/C(O)=C/C2=Nc3c(C)cccc3C3=NCCN23)cn1,≤ 100
21,O=C(NC1=Nc2ccccc2C2=NCCN12)c1ccco1,500 to 2000
22,COc1cc2c(cc1OC)C1=NCCN1C(/C=C(\O)c1cccs1)=N2,100 to 500
23,CCn1nc(C)cc1C(=O)NC1=Nc2ccccc2C2=NCCN12,100 to 500

row,Compound,IC50 [nM]
1,COc1c(OCC(N)=O)ccc2c1N=C(/C=C(\O)c1cccnc1)N1CCN=C21,≤ 100
2,COc1cccc2c1N=C(NC(=O)c1cccnc1Cl)N1CCN=C21,≤ 100
3,Cc1cccc2c1N=C(NC(=O)c1cccnc1)N1CCN=C21,100 to 500
4,COc1ccc2c(c1)N=C(NC(=O)c1ccc3[nH]cnc3c1)N1CCN=C21,≤ 100
5,O=C(NC1=Nc2ccc(Cl)cc2C2=NCCN12)c1cccnc1,≤ 100
6,COc1cc2c(c(OC)c1C)N=C(/C=C(\O)c1cccnc1)N1CCN=C21,≤ 100
7,O/C(=C\C1=Nc2ccccc2C2=NCCN12)c1cccnc1,100 to 500
8,O/C(=C\C1=Nc2cc(N3CCOCC3)ccc2C2=NCCN12)c1ccc2[nH]cnc2c1,≤ 100
9,O=C(NC1=Nc2ccccc2C2=NCCN12)c1csc(-c2ccncc2)n1,> 2000
10,O/C(=C\C1=Nc2ccccc2C2=NCCN12)c1ccccn1,500 to 2000
11,O=C(NC1=Nc2ccc(Br)cc2C2=NCCN12)c1cccnc1,100 to 500
12,Cc1ccc(C(=O)NC2=Nc3cc(N4CCOCC4)ccc3C3=NCCN23)cn1,≤ 100
13,O=C(NC1=Nc2ccccc2C2=NCCN12)c1ccccn1,500 to 2000
14,COc1cc(OC)c2c(c1)C1=NCCN1C(NC(=O)c1ccc(NC(C)=O)nc1)=N2,100 to 500
15,COc1cc2c(c(OC)c1C)N=C(/C=C(\O)c1ccc(NC(C)=O)nc1)N1CCN=C21,≤ 100
16,O/C(=C\C1=Nc2ccccc2C2=NCCN12)c1ccco1,100 to 500
17,CS(=O)(=O)c1ccc(C(=O)NC2=Nc3ccccc3C3=NCCN23)cc1,> 2000
18,Cc1ncccc1C(=O)NC1=Nc2ccccc2C2=NCCN12,≤ 100
19,O=C(NC1=Nc2cc(OCCOCCO)ccc2C2=NCCN12)c1cccnc1,100 to 500
20,O/C(=C\C1=Nc2ccccc2C2=NCCN12)c1cccs1,≤ 100
21,O/C(=C\C1=Nc2c(OCC3CC3)cccc2C2=NCCN12)c1cccnc1,100 to 500
22,CSc1ccc(C(=O)NC2=Nc3ccccc3C3=NCCN23)cc1,> 2000
23,COc1ccc2c(c1)C1=NCCN1C(/C=C(\O)c1cccnc1)=N2,100 to 500

row,Compound,IC50 [nM]
1,O=C(NC1=Nc2ccccc2C2=NCCN12)c1cncc(O)c1,≤ 100
2,O=C(NC1=Nc2ccccc2C2=NCCN12)c1cnccn1,500 to 2000
3,CC(=O)Nc1ccc(/C(O)=C/C2=Nc3cc(CN4CCOCC4)ccc3C3=NCCN23)cn1,100 to 500
4,O=C(NC1=Nc2cc(OCCO)ccc2C2=NCCN12)c1cccnc1,100 to 500
5,NS(=O)(=O)c1ccc(C(=O)NC2=Nc3ccccc3C3=NCCN23)cc1,500 to 2000
6,O/C(=C\C1=Nc2cc(N3CCN(Cc4ccccc4)CC3)ccc2C2=NCCN12)c1cccnc1,100 to 500
7,CN(C)c1cccc(C(=O)NC2=Nc3ccccc3C3=NCCN23)c1,> 2000
8,COc1ccc2c(c1OC)N=C(NC(=O)c1ccc3[nH]cnc3c1)N1CCN=C21,≤ 100
9,COc1cccc2c1N=C(NC(=O)c1cccnc1)N1CCN=C21,≤ 100
10,O=C(NC1=Nc2ccccc2C2=NCCN12)c1csc(-c2cccnc2)n1,> 2000
11,O/C(=C\C1=Nc2ccc(Cl)cc2C2=NCCN12)c1cccnc1,100 to 500
12,O/C(=C\C1=Nc2cc(-c3ccccc3)ccc2C2=NCCN12)c1cccnc1,100 to 500
13,Cc1ccc2c(c1)C1=NCCN1C(/C=C(\O)c1cccnc1)=N2,100 to 500
14,O=C(NC1=Nc2ccccc2C2=NCCN12)c1ccc([N+](=O)[O-])cc1,> 2000
15,O=C(NC1=Nc2ccccc2C2=NCCN12)c1ccc(Cl)cc1,> 2000
16,COc1ccc2c(c1OC)N=C(/C=C(\O)c1cccnc1)N1CCN=C21,≤ 100
17,COc1c(OCCO)ccc2c1N=C(/C=C(\O)c1cccnc1)N1CCN=C21,≤ 100
18,COc1c(OCc2nn[nH]n2)ccc2c1N=C(/C=C(\O)c1cccnc1)N1CCN=C21,≤ 100
19,COc1ccc2c(c1OC)N=C(NC(=O)c1cnc3[nH]cnc3c1)N1CCN=C21,≤ 100
